Results reported in patent publication US9422293B2 (priority 2006, dated 2016).
Structures can show the parent of a compound that is named as a salt.

biological target: rat TRPV1 (Rattus norvegicus (Rat), UniProt O35433); conditions: read-out: Rat IC50
Sequence (O35433 whole entry): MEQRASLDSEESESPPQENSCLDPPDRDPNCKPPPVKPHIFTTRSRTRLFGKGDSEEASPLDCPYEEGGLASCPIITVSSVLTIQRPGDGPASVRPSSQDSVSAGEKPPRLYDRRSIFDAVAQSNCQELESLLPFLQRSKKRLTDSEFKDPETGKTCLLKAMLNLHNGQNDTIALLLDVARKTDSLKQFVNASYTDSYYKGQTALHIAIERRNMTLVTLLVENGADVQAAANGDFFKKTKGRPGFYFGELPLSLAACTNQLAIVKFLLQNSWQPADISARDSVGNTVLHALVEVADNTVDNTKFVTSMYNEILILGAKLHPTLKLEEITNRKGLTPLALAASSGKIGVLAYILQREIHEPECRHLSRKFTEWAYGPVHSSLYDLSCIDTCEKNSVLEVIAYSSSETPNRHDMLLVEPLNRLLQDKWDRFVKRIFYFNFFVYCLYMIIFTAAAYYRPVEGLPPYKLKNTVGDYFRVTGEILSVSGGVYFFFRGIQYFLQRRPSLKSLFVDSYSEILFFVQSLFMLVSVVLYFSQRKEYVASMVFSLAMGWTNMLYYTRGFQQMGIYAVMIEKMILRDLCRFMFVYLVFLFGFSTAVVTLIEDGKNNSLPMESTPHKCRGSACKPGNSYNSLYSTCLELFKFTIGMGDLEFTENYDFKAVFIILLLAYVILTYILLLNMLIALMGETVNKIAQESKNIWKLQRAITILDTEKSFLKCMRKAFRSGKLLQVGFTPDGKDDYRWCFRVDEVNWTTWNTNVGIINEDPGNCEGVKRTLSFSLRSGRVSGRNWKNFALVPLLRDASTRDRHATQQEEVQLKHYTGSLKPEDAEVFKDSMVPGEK
Protocol: Biological Testing: Functional Assay: Block of Capsaicin-Induced Ca^2+ Influx A. Human Assay
Cells were passaged frequently, every 3-5 days, to avoid overgrowth, depletion of essential medium components, or acidic medium exposure. Cells were passaged using a brief wash in 0.05% trypsin with 1 mM EDTA, followed by dissociation in divalent-free phosphate-buffered saline (Hyclone #SH30028.02). […] The assay buffer was composed of 130 mM NaCl, 2 mM KCl, 2 mM MgCl2, 10 mM HEPES, 5 mM glucose, and either 2 mM or 20 μM CaCl2. On the day of the experiment, the culture medium was replaced with 2 mM calcium assay buffer using an automated plate washer (ELx405; Biotek, VT). […] After loading the cells, the dye solution was replaced with 50 μL/well of 20 μM calcium assay buffer using the ELx405 plate washer. Test compounds (50 μL/well) were added to the plate and incubated for 30 min. […] The IC50 values were determined. […] The contents of the wells were mixed 3 times (40 μL mix volume) immediately after the additions were made. Concentration dependence of block was determined by exposing each well of cells in duplicate rows of a 96 well plate to a serial dilution of test compound. The concentration series usually started at 10 μM with a three-fold serial decrement in concentration. The magnitude of the capsaicin response was determined by measuring the change in fluo3 fluorescence before and 100 seconds after the addition of the agonist. Data were analyzed using a non-linear regression program (Origin; OriginLab, MA). IC50 values shown are the average (mean) of the results obtained.
The assay was performed as described above, using HEK293 cells transfected with rat TRPV1 (rTRPV1/HEK293). […] IC50 values shown are the average (mean) of the results obtained.

SMILES | IC50 [nM]
FC(F)(F)c1ccc(Nc2nc(N3CCCCC3)nc3c2CCN(c2ncccc2C(F)(F)F)CC3)cc1Cl [Example 233, N-[3-Chloro-4-(trifluoromethyl)phenyl]-2-piperidin-1-yl-7-[3-(trifluoromethyl)pyridin-2-yl]-6,7,8,9-tetrahydro-5H-pyrimido[4,5-d]azepin-4-amine trifluoroacetic acid salt] | 170
COc1ccccc1CCNc1nc(C(C)C)nc2c1CCN(c1ncccc1C(F)(F)F)CC2 [Example 126, 2-(1-Methylethyl)-N-{2-[2-(methyloxy)phenyl]ethyl}-7-[3-(trifluoromethyl)pyridin-2-yl]-6,7,8,9-tetrahydro-5H-pyrimido[4,5-d]azepin-4-amine] | 1190
CC(C)c1nc2c(c(Nc3ccc(C(F)(F)F)cc3)n1)CCN(c1ccccc1N)CC2 [Example 84, [7-(2-Amino-phenyl)-2-isopropyl-6,7,8,9-tetrahydro-5H-pyrimido[4,5-d]azepin-4-yl]-(4-trifluoromethyl-phenyl)-amine] | > 20000
CC(C)c1nc2c(c(Nc3ccc(N)cc3)n1)CCN(c1ncccc1C(F)(F)F)CC2 [Example 198, N-{2-(1-Methylethyl)-7-[3-(trifluoromethyl)pyridin-2-yl]-6,7,8,9-tetrahydro-5H-pyrimido[4,5-d]azepin-4-yl}benzene-1,4-diamine trifluoroacetic acid salt] | 9160
Cc1cc(C(F)(F)F)ccc1Nc1nc(SCC(C)O)nc2c1CCN(c1ncccc1C(F)(F)F)CC2 (centres unmarked) [Example 367, 1-[(4-{[2-Methyl-4-(trifluoromethyl)phenyl]amino}-7-[3-(trifluoromethyl)pyridin-2-yl]-6,7,8,9-tetrahydro-5H-pyrimido[4,5-d]azepin-2-yl)sulfanyl]propan-2-ol] | > 6670
CN(C)c1nc2c(c(NC3Cc4ccccc4C3)n1)CCN(c1ncccc1C(F)(F)F)CC2 [Example 82B, N^4-Indan-2-yl-N^2,N^2-dimethyl-7-(3-trifluoromethyl-pyridin-2-yl)-6,7,8,9-tetrahydro-5H-pyrimido[4,5-d]azepine-2,4-diamine trifluoroacetic acid salt] | 2800
OC[C@H]1CCCN1c1nc2c(c(Nc3ccc(C(F)(F)F)cc3)n1)CCN(c1ncccc1C(F)(F)F)CC2 [Example 261, [(2R)-1-(4-{[4-(Trifluoromethyl)phenyl]amino}-7-[3-(trifluoromethyl)pyridin-2-yl]-6,7,8,9-tetrahydro-5H-pyrimido[4,5-d]azepin-2-yl)pyrrolidin-2-yl]methanol hydrochloride salt] | 340
FC(F)(F)c1ccc(Nc2nc(-c3ccncc3)nc3c2CCN(c2ncccc2C(F)(F)F)CC3)cc1 [Example 167, 2-Pyridin-4-yl-N-[4-(trifluoromethyl)phenyl]-7-[3-(trifluoromethyl)pyridin-2-yl]-6,7,8,9-tetrahydro-5H-pyrimido[4,5-d]azepin-4-amine trifluoroacetic acid salt] | 370
Cc1cnc(Nc2nc(C(C)C)nc3c2CCN(c2ncccc2C(F)(F)F)CC3)cn1 [Example 187, 2-(1-Methylethyl)-N-(5-methylpyrazin-2-yl)-7-[3-(trifluoromethyl)pyridin-2-yl]-6,7,8,9-tetrahydro-5H-pyrimido[4,5-d]azepin-4-amine hydrochloride salt] | 2850
CC(Oc1nc2c(c(Nc3ccc(C(F)(F)F)cc3)n1)CCN(c1ncccc1C(F)(F)F)CC2)C1CCCCC1 (stereo not drawn) [Example 332, 2-[(1-Cyclohexylethyl)oxy]l-N-[4-(trifluoromethyl)phenyl]-7-[3-(trifluoromethyl)pyridin-2-yl]-6,7,8,9-tetrahydro-5H-pyrimido[4,5-d]azepin-4-amine] | 2040

same assay, conditions: read-out: Rat IC50; hydrochloride salt

SMILES | IC50 [nM]
FC(F)(F)c1ccc(Nc2nc(N3CCOCC3)nc3c2CCN(c2ncccc2C(F)(F)F)CC3)cc1 [Example 40A, [2-Morpholin-4-yl-7-(3-trifluoromethyl-pyridin-2-yl)-6,7,8,9-tetrahydro-5H-pyrimido[4,5-d]azepin-4-yl]-(4-trifluoromethyl-phenyl)-amine hydrochloride salt] | […]
